Measurements taken from patent US9546151B2, “VMAT inhibitory compounds” (Oregon Health & Science University, priority 2014, dated 2017).
Where a name gives a salt, the structure may show the parent alone. Read-outs that look alike come from different tables or passages of the source.

Experiments:
VMAT2 [1] = biological target: T1, VMAT2 (Homo sapiens, UniProt Q05940); test: hVMAT2 [3H]DTBZ ([3H]DHTB) binding assay; design: expressed in transfected cells; host or cells: HEK (human embryonic kidney) cells
Experimental: (§1) Membrane preparation for binding, uptake and release assays using HEK-hVMAT2 cells: Human embryonic kidney cells expressing the human vesicular monoamine transporter 2 (HEK-hVMAT2) were used. HEK-hVMAT2 cells were grown until confluent. The media was removed from plates, solution A [sucrose (0.32 M) with protease inhibitors] was added to the plate, and cells were scraped from plate. Cells were homogenized with 12 strokes of a glass/glass homogenizer. The homogenate was centrifuged at 800×g for 10 min. The supernatant was removed and saved, and the pellet was resuspended, homogenized and centrifuged as above. The supernatants were combined and centrifuged at 10,000×g for 20 min. The pellet was resuspended in solution A (0.75 ml). The membranes were osmotically shocked by addition of 2.625 ml ice cold water and homogenized by 5 strokes of a glass/Teflon homogenizer. The osmolarity was reestablished with addition of Tris (338 μl, 0.25M, pH 7.4 at 4° C.), sodium potassium tartrate (338 μl, 1.0 M), and MgSO4 (4 μl, 0.9M). The homogenate was centrifuged at 20,000×g for 20 min.
Binding was terminated by filtration over Whatman GF/C filters using a Tomtec 96-well cell harvester. Filters were washed for six seconds with ice-cold saline. Scintillation fluid was added to each square and radioactivity remaining on the filters was determined using a Wallac μ- or beta-plate reader. Specific binding was defined as the difference in binding observed in the presence and absence of Ro4-1284 (10 μM, generously supplied by Hoffman LaRoche). Three or more independent competition experiments were conducted with duplicate determinations.

VMAT2 [2] = biological target: T1, VMAT2; test: hVMAT2 5HT Uptake; type: biochemical; design: expressed in transfected cells; host or cells: HEK (human embryonic kidney) cells
Experimental: as §1

[3] = cells printed in μM under a head in nM, HEK-hVMAT2 membranes
[4] = cells printed in μM under a head in nM, read-out: hVMAT2 5HT Uptake IC50 (nM) ± SEM
[5] = [^3H]5HT uptake, HEK-hVMAT2 preparation, read-out: hVMAT2 5HT Uptake IC50 (nM) ± SEM
[6] = HEK-hVMAT2 membranes, series 5 ligands tested as hydrochloride salts

T1 sequence (Q05940 whole entry): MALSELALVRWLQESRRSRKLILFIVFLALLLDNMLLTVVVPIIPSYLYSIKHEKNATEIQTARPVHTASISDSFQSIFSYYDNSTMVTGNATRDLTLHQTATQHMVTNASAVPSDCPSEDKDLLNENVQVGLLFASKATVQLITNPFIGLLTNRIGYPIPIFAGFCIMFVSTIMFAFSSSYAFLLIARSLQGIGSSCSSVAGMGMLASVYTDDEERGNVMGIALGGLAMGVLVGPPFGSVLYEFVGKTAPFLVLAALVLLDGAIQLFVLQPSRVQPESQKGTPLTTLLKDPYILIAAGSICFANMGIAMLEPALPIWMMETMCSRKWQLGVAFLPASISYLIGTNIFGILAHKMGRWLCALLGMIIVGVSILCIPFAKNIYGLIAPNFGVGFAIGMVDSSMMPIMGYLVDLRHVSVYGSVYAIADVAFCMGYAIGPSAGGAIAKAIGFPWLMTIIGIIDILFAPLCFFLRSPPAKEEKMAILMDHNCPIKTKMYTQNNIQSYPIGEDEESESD

Row | melting point [°C] | Ki (VMAT2 [1]; [3]) [µM] | IC50 (VMAT2 [2]; [5]) [µM] | Structure (SMILES) | other results
1 | 150 to 151.5 |  |  | CCOC(=O)[C@H]1CN(CCn2c(=O)[nH]c3ccccc3c2=O)CC[C@H]1c1ccc(OC(F)(F)F)cc1 (racemic) (as salt: HCl) [Compound 5ii, (±)-syn-ethyl 1-(2-(2,4-dioxo-1,2-dihydroquinazolin-3(4H)-yl)ethyl)-4-(4-(trifluoromethoxy)phenyl)piperidine-3-carboxylate] | 
2 | 155 to 156 |  |  | CCOC(=O)[C@H]1CN(CCn2c(=O)[nH]c3ccccc3c2=O)CC[C@H]1c1cccc(OC(F)(F)F)c1 (racemic) (as salt: HCl) [Compound 5jj, (±)-syn-Ethyl 1-(2-(2,4-dioxo-1,2-dihydroquinazolin-3(4H)-yl)ethyl)-4-(3-(trifluoromethoxy)phenyl)piperidine-3-carboxylate] | 
3 |  | > 5 |  | CCOC(=O)[C@H]1CN(CCn2c(=O)[nH]c3ccccc3c2=O)CC[C@H]1c1ccc(OC(F)(F)F)cc1 (racemic) [Compound 5ii, (±)-syn-ethyl 1-(2-(2,4-dioxo-1,2-dihydroquinazolin-3(4H)-yl)ethyl)-4-(4-(trifluoromethoxy)phenyl)piperidine-3-carboxylate] | 
4 |  | > 10 | 2.15 ± 0.237 | CCOC(=O)[C@H]1CN(CCn2c(=O)[nH]c3ccccc3c2=O)CC[C@H]1c1ccc(N)cc1 (racemic) [Compound 5mm, (±)-syn-Ethyl 4-(4-aminophenyl)-1-(2-(2,4-dioxo-1,2-dihydroquinazolin-3(4H),-yl)ethyl) piperidine-3-carboxylate] | 
5 |  | > 10 | 0.18 ± 0.054 | CCOC(=O)[C@H]1CN(CCn2c(=O)[nH]c3ccccc3c2=O)CC[C@H]1c1cccc(OC)c1 (racemic) [Compound 5q, (±)-syn-Ethyl 1-(2-(2,4-dioxo-1,2-dihydroquinazolin-3(4H),-yl)ethyl)-4-(3-methoxyphenyl) piperidine-3-carboxylate] | 
6 |  | > 10 | 0.036 ± 0.011 | CCOC(=O)[C@H]1CN(CCn2c(=O)[nH]c3ccccc3c2=O)CC[C@H]1c1ccc(OC)cc1 (racemic) [Compound 5r, (±)-syn-Ethyl 1-(2-(2,4-dioxo-1,2-dihydroquinazolin-3(4H),-yl)ethyl)-4-(4-methoxyphenyl) piperidine-3-carboxylate] | 
7 |  |  | 0.906 ± 0.014 | CCOC(=O)[C@H]1CN(CCn2c(=O)[nH]c3ccccc3c2=O)CC[C@H]1c1ccc(CC)cc1 (racemic) [Compound 5t, (±)-syn-Ethyl 1-(2-(2,4-dioxo-1,2-dihydroquinazolin-3(4H),-yl)ethyl)-4-(4-ethylphenyl) piperidine-3-carboxylate] | Ki (VMAT2 [1]; [6]): > 8.4 µM
8 |  |  | 0.684 ± 0.249 | CCOC(=O)[C@H]1CN(CCn2c(=O)[nH]c3ccccc3c2=O)CC[C@H]1c1ccc(C(C)C)cc1 (racemic) [Compound 5u, (±)-syn-Ethyl 1-(2-(2,4-dioxo-1,2-dihydroquinazolin-3(4H),-yl)ethyl)-4-(4-isopropylphenyl) piperidine-3-carboxylate] | Ki (VMAT2 [1]; [6]): 1.62 ± 0.107 µM
9 |  |  | 0.053 ± 0.01 | CCOC(=O)[C@H]1CN(CCn2c(=O)[nH]c3ccccc3c2=O)CC[C@H]1c1cccc(C)c1 (racemic) [Compound 5y, (±)-syn-Ethyl 1-(2-(2,4-dioxo-1,2-dihydroquinazolin-3(4H),-yl)ethyl)-4-(m-tolyl)piperidine-3-carboxylate] | Ki (VMAT2 [1]; [6]): > 6.2 µM
10 |  | > 5 | 0.031 ± 0.003 | CCOC(=O)[C@H]1CN(CCn2c(=O)[nH]c3ccccc3c2=O)CC[C@H]1c1ccccc1C (racemic) [Compound 5z, (±)-syn-Ethyl 1-(2-(2,4-dioxo-1,2-dihydroquinazolin-3(4H),-yl)ethyl)-4-(o-tolyl)piperidine-3-carboxylate] | 
11 |  |  | 0.142 ± 0.023 | O=C(c1ccc(F)cc1)C1CCN(CCn2c(=O)[nH]c3ccccc3c2=O)CC1 [R1=H, R2=H] | Ki (VMAT2 [1]; [6]): 0.119 ± 0.003 µM

The next lines start with the compound.

Row | Structure (SMILES) | melting point [°C] | Ki (VMAT2 [1]; [3]) [µM] | IC50 (VMAT2 [2]; [5]) [µM] | other results
12 | CCOC(=O)C1=C(c2ccc(F)cc2)CCN(CCn2c(=O)[nH]c3ccccc3c2=O)C1 | 150 to 152 |  |  | 
13 | O=c1[nH]c2ccccc2c(=O)n1CCN1CC=C(c2ccc(F)cc2)CC1 | 208 |  |  | 
14 | CCOC(=O)C1=C(c2ccccc2C(F)(F)F)CCN(CCn2c(=O)[nH]c3ccccc3c2=O)C1 (as salt: HCl) [Compound 5hh, Ethyl 1-(2-(2,4-dioxo-1,2-dihydroquinazolin-3(4H)-yl)ethyl)-4-(2-(trifluoromethyl)phenyl)-1,2,5,6-tetrahydropyridine-3-carboxylate] | 153.5 to 154.5 |  |  | 
15 | CCOC(=O)[C@H]1CN(CCn2c(=O)[nH]c3ccccc3c2=O)CC[C@H]1c1cccc(N(C)C)c1 (racemic) (as salt: HCl) [Compound 5aa, (±)-syn-Ethyl 4-(3-(dimethylamino)phenyl)-1-(2-(2,4-dioxo-1,2-dihydroquinazolin-3(4H),-yl)ethyl) piperidine-3-carboxylate] | 179 to 180 |  |  | 
16 | CCOC(=O)[C@H]1CN(CCn2c(=O)[nH]c3ccccc3c2=O)CC[C@H]1c1ccccc1N(C)C (racemic) (as salt: HCl) [Compound 5bb, (±)-syn-Ethyl 4-(2-(dimethylamino)phenyl)-1-(2-(2,4-dioxo-1,2-dihydroquinazolin-3(4H),-yl)ethyl) piperidine-3-carboxylate] | 208 to 209 |  |  | 
17 | CCOC(=O)[C@H]1CN(CCn2c(=O)[nH]c3ccccc3c2=O)CC[C@H]1c1ccc(OC)c(OC)c1 (racemic) (as salt: HCl) [Compound 5dd, (±)-syn-Ethyl 4-(3,4-dimethoxyphenyl)-1-(2-(2,4-dioxo-1,2-dihydroquinazolin-3(4H),-yl)ethyl) piperidine-3-carboxylate] | 154.5 to 155.5 |  |  | 
18 | CCOC(=O)[C@H]1CN(CCn2c(=O)[nH]c3ccccc3c2=O)CC[C@H]1c1ccc(O)c(O)c1 (racemic) (as salt: HCl) [Compound 5ff, (±)-syn-Ethyl 4-(3,4-dihydroxyphenyl)-1-(2-(2,4-dioxo-1,2-dihydroquinazolin-3(4H)-yl)ethyl)piperidine-3-carboxylate] | 167 to 168.5 |  |  | 
19 | CCOC(=O)[C@H]1CN(CCn2c(=O)[nH]c3ccccc3c2=O)CC[C@H]1c1ccc2c(c1)OCCO2 (racemic) (as salt: HCl) [Compound 5gg, (±)-syn-Ethyl 4-(2,3-dihydrobenzo[b][1,4]dioxin-6-yl)-1-(2-(2,4-dioxo-1,2-dihydroquinazolin-3(4H)-yl)ethyl)piperidine-3-carboxylate] | 178 to 179 |  |  | 
20 | CCOC(=O)[C@H]1CN(CCn2c(=O)[nH]c3ccccc3c2=O)CC[C@H]1c1ccccc1N(C)C (racemic) [Compound 5bb, (±)-syn-Ethyl 4-(2-(dimethylamino)phenyl)-1-(2-(2,4-dioxo-1,2-dihydroquinazolin-3(4H),-yl)ethyl) piperidine-3-carboxylate] |  | > 6 |  | IC50 (VMAT2 [2]; [4]): > 2 µM
21 | CCOC(=O)[C@H]1CN(CCn2c(=O)[nH]c3ccccc3c2=O)CC[C@H]1c1cccc(N=[N+]=[N-])c1 (racemic) [Compound 5cc, (±)-syn-Ethyl 4-(3-azidophenyl)-1-(2-(2,4-dioxo-1,2-dihydroquinazolin-3(4H)-yl)ethyl)piperidine-3-carboxylate] |  | > 7 | 0.074 ± 0.011 | 
22 | CCOC(=O)[C@H]1CN(CCn2c(=O)[nH]c3ccccc3c2=O)CC[C@H]1c1ccc(OC)c(OC)c1 (racemic) [Compound 5dd, (±)-syn-Ethyl 4-(3,4-dimethoxyphenyl)-1-(2-(2,4-dioxo-1,2-dihydroquinazolin-3(4H),-yl)ethyl) piperidine-3-carboxylate] |  | > 10 |  | IC50 (VMAT2 [2]; [4]): > 3 µM
23 | CCOC(=O)[C@H]1CN(CCn2c(=O)[nH]c3ccccc3c2=O)CC[C@H]1c1ccc(O)c(O)c1 (racemic) [Compound 5ff, (±)-syn-Ethyl 4-(3,4-dihydroxyphenyl)-1-(2-(2,4-dioxo-1,2-dihydroquinazolin-3(4H)-yl)ethyl)piperidine-3-carboxylate] |  |  | 0.333 ± 0.085 | 
24 | CCOC(=O)[C@@H]1CN(CCn2c(=O)[nH]c3ccccc3c2=O)CC[C@@H]1c1ccc(C(N)=O)cc1 (racemic) [Compound 5i, (±) syn-ethyl 4-(4-carbamoylphenyl)-1-(2-(2,4-dioxo-1,2-dihydroquinazolin-3(4H)-yl)ethyl)piperidine-3-carboxylate] |  | > 3 |  | IC50 (VMAT2 [2]; [4]): > 10 µM
25 | CCOC(=O)[C@H]1CN(CCn2c(=O)[nH]c3ccccc3c2=O)CC[C@H]1c1ccc(C)s1 [A1=CH3] |  |  |  | Ki (VMAT2 [1]): > 8 µM; IC50 (VMAT2 [2]): 0.312 ± 0.018 µM
26 | CCOC(=O)C1=C(c2ccccc2C(F)(F)F)CCN(CCn2c(=O)[nH]c3ccccc3c2=O)C1 [Compound 5hh, Ethyl 1-(2-(2,4-dioxo-1,2-dihydroquinazolin-3(4H)-yl)ethyl)-4-(2-(trifluoromethyl)phenyl)-1,2,5,6-tetrahydropyridine-3-carboxylate] |  |  | 0.328 ± 0.038 | 
